Paper PMC8780978, “Antiplatelet and Antithrombotic Effects of Isaridin E Isolated from the Marine-Derived Fungus via Downregulating the PI3K/Akt Signaling Pathway” (Marine Drugs, 2021)
Where a SMILES comes first, the peptide text is derived from it. [ ]: non-standard residue; d: D form. ξ: configuration not given here. ξLac(3-iPr) = CC(C)CC(O)C(=O)O; NMeV = CN[C@H](C(=O)O)C(C)C; βAla = NCCC(=O)O

Legend:
washed mouse platelets [1] = experiment: ADP-induced platelet activation, CD62p surface expression by flow cytometry; type: cell-based; settings: 30 min, then 50 μM ADP 5 min, vehicle 35.6 ± 1.7%
Experimental: (§1) Washed platelets were prepared as previously described by Zhongren Ding et al.. Whole blood was collected from the abdominal aorta using a syringe containing 3.8% sodium citrate (9:1, V/V) as an anticoagulant. Citrated blood (2 mL) was centrifuged at room temperature at 300× g for 2 min to obtain platelet-rich plasma (PRP). Platelets were obtained by the further centrifugation of PRP at 700× g for 2 min, and resuspended in Tyrode’s buffer (138 mM of NaCl, 2.7 mM of KCl, 1 mM of MgCl2, 3 mM of NaH2PO4, 5 mM of glucose, 10 mM of HEPES, pH 7.4) with 0.02 U/mL apyrase (A6410, Sigma-Aldrich, St. Louis, MO, USA) to a density of 3 × 10^8 of platelets/mL for use.
Washed mouse platelets were pretreated with vehicle or different concentrations of isaridin E for 30 min at 37 °C, followed by stimulation with 50 μM ADP for 5 min. Platelets were then stained with FITC-conjugated anti-CD41 antibody (133904, Biolegend, San Diego, CA, USA) and PE-conjugated anti-CD62p antibody (148306, Biolegend, San Diego, CA, USA) for 20 min at 25 °C in the dark. Then, platelets were fixed in 1% paraformaldehyde solution and analyzed with a CytoFLEX flow cytometer (Beckman Coulter, Brea, CA, USA).

[2] = FeCl3-induced carotid artery thrombosis mouse model; type: in vivo, C57BL/6J mice
Experimental: The mouse model of carotid artery thrombosis induced by FeCl3 injury was performed and monitored by a stereoscopic fluorescence microscope as previously described. […] Mice were then anesthetized with a single dose of sodium pentobarbital (60 mg/kg, i.p., Sigma-Aldrich, St. Louis, MO, USA). Rhodamine 6G (83697, Sigma-Aldrich, St. Louis, MO, USA; 0.5 mg/mL) was injected into the right jugular vein to label platelets. The carotid artery (CA) was carefully exposed, and a black "U"-shaped plastic (3 mm) was inserted under the CA gently to block background fluorescence. Filter papers (1 × 2 mm) with 7.5% saturated FeCl3 solution were applied topically for 1 min, and thrombus formation in the injured CA was recorded in real time using a stereoscopic fluorescence microscope (M205FA, Leica, Wetzlar, Germany) for 12 min.

human neutrophils = test system: human neutrophils; parameters: method as in PMID 23822585; settings: cited from earlier work
washed mouse platelets [3] = experiment: ADP-induced platelet ATP release (luciferin/luciferase); type: cell-based; settings: ADP 5 μM
Experimental: as §1
(§2) The platelet aggregation and release assay were performed as previously reported. Washed mouse platelets were treated with isaridin E (6.25, 12.5, 25, 50, 100, or 200 μM) or vehicle or clopidogrel (20 μM) at 37 °C for 30 min, followed by stimulation with ADP (01905, Sigma-Aldrich, St. Louis, MO, USA, 5 μM), collagen (C7661, Sigma-Aldrich, St. Louis, MO, USA, 1 μg/mL) or thrombin (T6884, Sigma-Aldrich, St. Louis, MO, USA, 0.02 U/mL). The platelet aggregation was assessed using a lumi-aggregometer (700-2, Chrono-Log, Havertown, PA, USA) with a stirring speed of 1200 rpm at 37 °C. The release of ATP was simultaneously monitored using Luciferin/luciferase reagent (395, Chrono-Log, Havertown, PA, USA). Aggregation traces and ATP release traces were monitored continuously for at least 10 min.

[4] = Hematologic parameters after single intragastric dose; type: in vivo, mice; settings: 3 h
Experimental: (§3) Mice were intragastrically administrated with a single dose of isaridin E (100 mg/kg) or vehicle at 3 h before anesthesia. Whole blood was drawn from the abdominal aorta and collected in K2EDTA anticoagulant tubes to evaluate the hematologic parameters with an automatic hematology analyzer (BC-2800 vet, Mindray, Shenzhen, China). The citrated blood was centrifuged at 1500× g (25 °C) for 15 min to obtain the platelet-poor plasma (PPP). PPP was then used to measure the coagulation parameters, including ATPP, PT, TT, and FIB, with an automated coagulation analyzer (RAC-030, Rayto, Shenzhen, China).

[5] = parameters: method as in PMID 21438588; settings: cited from earlier work
washed mouse platelets [6] = experiment: ADP-induced platelet aggregation (light transmission aggregometry); type: cell-based; settings: ADP 5 μM; for ADP-induced maximum platelet aggregation, % of vehicle control: 30 min pretreatment
Experimental: as §1, §2

washed mouse platelets [7] = experiment: Collagen-induced platelet aggregation; type: cell-based; settings: collagen 1 μg/mL, p > 0.05
Experimental: as §1
(§4) The platelet aggregation and release assay were performed as previously reported. […] The platelet aggregation was assessed using a lumi-aggregometer (700-2, Chrono-Log, Havertown, PA, USA) with a stirring speed of 1200 rpm at 37 °C. The release of ATP was simultaneously monitored using Luciferin/luciferase reagent (395, Chrono-Log, Havertown, PA, USA). Aggregation traces and ATP release traces were monitored continuously for at least 10 min.

Akt = experiment: ADP-induced phosphorylation of Akt, Western blot; type: cell-based, human; settings: 50 μM, Meg-01 cells
Experimental: (§5) Western blotting was performed as described in our previous study. Meg-01 cells were lysed with protein lysis buffer (P0013, Beyotime Biotechnology, Haimen, China) containing a protease inhibitor cocktail (539131, Millipore, Billerica, MA, USA) and phosphatase inhibitor cocktail (K1012, APExBIO, Houston, TX, USA). The samples (20 μg) were then separated by 8% SDS-PAGE gel and transferred onto PVDF membranes. The PDVF membranes were incubated with primary antibodies at 4 °C for 12 h. After incubating with the appropriate HRP-conjugated secondary antibodies (7076, 7074, Cell Signaling Technology, Danvers, MA, USA), blots were detected with chemiluminescent HRP substrate (P90719, Millipore, Billerica, MA, USA) using the ChemiDoc XRS+ system (BIO-RAD, Hercules, CA, USA). Primary antibodies against the following antigens were listed: PI3K (4257, Cell Signaling Technology, Danvers, MA, USA), Phospho-PI3K (ab226842, Abcam, Cambridge, UK), Akt (4691, Cell Signaling Technology, Danvers, MA, USA), Phospho-Akt (4056, Cell Signaling Technology, Danvers, MA, USA), and β-actin (66009-1, Proteintech, Rosemont, IL, USA).

washed mouse platelets [8] = experiment: Thrombin-induced platelet aggregation; type: cell-based; settings: thrombin 0.02 U/mL, p > 0.05
Experimental: as §1, §4

washed mouse platelets [9] = experiment: LDH (lactate dehydrogenase) release cytotoxicity assay; type: cell-based; settings: for LDH Release (%): 37 °C, 30 min, n = 6
Description: We first examined whether isaridin E has cytotoxic effects on washed mouse circulating platelets using the LDH (lactate dehydrogenase) cytotoxicity assay kit. Destruction of the cell membrane caused by apoptosis or necrosis leads to the release of enzymes in the cytoplasm into the culture medium, including LDH, with stable enzyme activity. Therefore, the quantitative analysis of the percentage of LDH leakage from the platelets is commonly used to evaluate the cytotoxic effects of tested compounds, and LDH > 10% was considered cytotoxic. […] Next, we tested whether treatment with isaridin E for 3 h (a single intragastric administration at 100 mg/kg) affects hematological and coagulation parameters in vivo.
as §1
The possible cytotoxic effect of isaridin E on mouse platelets was assessed with the LDH Cytotoxicity Assay Kit (C0016, Beyotime Biotechnology, Haimen, China). Washed mouse platelets were pretreated with vehicle or different concentrations of isaridin E ([…], 12.5, 25, 50, 100, 200, or 400 μM) at 37 °C for 30 min, and then collected for detection following the manufacturer’s instructions. The cytotoxic effects were determined using the percentage of LDH leakage released from the platelets (% LDH release).

PI3K = experiment: ADP-induced phosphorylation of PI3K, Western blot; type: cell-based, human; settings: 50 μM, Meg-01 cells
Experimental: as §5

[10] = Coagulation parameters (APTT, PT, TT, FIB) after single intragastric dose; type: in vivo, mice; settings: 3 h
Experimental: as §3

Tail-bleeding assay = settings: for tail bleeding time versus vehicle control: single intragastric dose 3 h before, n = 5 mice
Experimental: Mice were assigned randomly to […] and intragastrically administrated with a single dose of vehicle, isaridin E (12.5, 25, 50, or 100 mg/kg), or clopidogrel (10 mg/kg) at 3 h before the cutting-tail experiment. Tails were transected at a distal margin of 5 mm and were immediately immersed into 10 mL of saline at 37 °C. The bleeding time was recorded as when the observed bleeding ceased.

[11] = 100 mg/kg single gavage, n=5 mice
[12] = 100 mg/kg single intragastric administration
[13] = 100 mg/kg single oral gavage, n = 5 mice

CC(C)CC1OC(=O)CCNC(=O)[C@H](C(C)C)N(C)C(=O)[C@H](C(C)C)N(C)C(=O)[C@H](Cc2ccccc2)NC(=O)[C@@H]2CCCN2C1=O (stereo partly drawn) [Isaridin E, cyclo-[(OH) (S)-HMPA^1-L-Pro^2-L-Phe^3-N-Me-L-Val^4-N-Me-L-Val^5-β-Ala^6(CO)]] (cyclo(F[NMeV][NMeV][βAla][ξLac(3-iPr)]P))
percentage of CD62p expression on the platelet surface (washed mouse platelets [1]; 25 μM): 29.6 ± 1.0% | percentage of CD62p expression on the platelet surface (washed mouse platelets [1]; 50 μM): 16.0 ± 1.4% | percentage of CD62p expression on the platelet surface (washed mouse platelets [1]; 100 μM): 8.4 ± 1.0% | maximum thrombus size ([2]; 12.5, 25, 50, or 100 mg/kg oral gavage at 1, 24, 48 h before FeCl3 injury, at 12 min, dose-dependent): reduced | time to the first thrombus formation ([2]; 12.5, 25, 50, or 100 mg/kg oral gavage at 1, 24, 48 h before FeCl3 injury, dose-dependent): significantly prolonged | antithrombotic effects relative to clopidogrel at 10 mg/kg ([2]; 50 or 100 mg/kg): comparable to that of clopidogrel | cytotoxicity in human neutrophils (human neutrophils): without cytotoxicity | elastase release induced by FMLP (human neutrophils; human neutrophils): inhibiting | superoxide anion generation induced by FMLP (human neutrophils; human neutrophils): inhibiting | ADP-induced platelet ATP release, % of vehicle control (washed mouse platelets [3]; 6.25 μM): 60.7 ± 7.9% | ADP-induced platelet ATP release, % of vehicle control (washed mouse platelets [3]; 12.5 μM): 31.7 ± 4.8% | IC50 (washed mouse platelets [3]; Mus musculus, Platelet, read-out: IC50 inhibiting ADP-induced platelet ATP release): 7.9 ± 1.1 µM | HCT (hematocrit) [4, 11]: 39.5 ± 1.4% | LY % (lymphocyte percentage) [4, 11]: 83.1 ± 2.5% | MCH (mean red blood cell hemoglobin) [4, 11]: 17.3 ± 0.4 pg | MCHC (mean red blood cell hemoglobin concentration) [4, 11]: 330 ± 8 g/L | MCV (mean red blood cell volume) [4, 11]: 51.1 ± 0.8 fL | MO % (monocyte percentage) [4, 11]: 2.7 ± 0.6% | MPV (mean platelet volume) [4, 11]: 5.3 ± 0.3 fL | NE % (neutrophil percentage) [4, 11]: 14.8 ± 2.2% | PLT (platelet count) [4, 11]: 1233 ± 65 10^9/L | RBC (red blood cell) [4, 11]: 7.8 ± 0.3 10^12/L | RDW (red cell distribution width) [4, 11]: 15.2 ± 0.5% | WBC (white blood cell) [4, 11]: 3.3 ± 0.5 10^9/L | hematological parameters versus NS- and vehicle-treated groups [4, 12]: no significant differences | insecticidal activity [5]: insecticidal activity | ADP-induced maximum platelet aggregation, % of vehicle control (washed mouse platelets [6]; 12.5 μM): 75.6 ± 2.6% | ADP-induced maximum platelet aggregation, % of vehicle control (washed mouse platelets [6]; 25 μM): 55.7 ± 4.8% | ADP-induced maximum platelet aggregation, % of vehicle control (washed mouse platelets [6]; 50 μM): 26.6 ± 3.5% | reduction of ADP-induced platelet aggregation versus vehicle control (washed mouse platelets [6]; 50 μM, extent similar to clopidogrel (20 μM)): 73.4 ± 3.5% | ADP-induced maximum platelet aggregation, % of vehicle control (washed mouse platelets [6]; 100 μM): 15.6 ± 2.9% | ADP-induced maximum platelet aggregation, % of vehicle control (washed mouse platelets [6]; 200 μM): 8.1 ± 0.8% | IC50 (washed mouse platelets [6]; Mus musculus, Platelet, read-out: IC50 inhibiting ADP-induced platelet aggregation): 26.1 ± 2.9 µM | maximum platelet aggregation in response to collagen (washed mouse platelets [7]): no significant differences | ADP-induced phosphorylation of Akt (Akt; 30 min, ADP 5 μM 5 min): significantly suppressed | total protein expression of Akt (Akt): without altering | maximum platelet aggregation in response to thrombin (washed mouse platelets [8]): no significant differences | cytotoxicity on washed platelets (washed mouse platelets [9]; 6.25-400 μM, LDH > 10% considered cytotoxic): no obvious cytotoxicity | LDH Release (%) (washed mouse platelets [9]; isaridin E 6.25 μM): 0.86 ± 0.03% | LDH Release (%) (washed mouse platelets [9]; isaridin E 12.5 μM): 0.89 ± 0.04% | LDH Release (%) (washed mouse platelets [9]; isaridin E 25 μM): 0.88 ± 0.03% | LDH Release (%) (washed mouse platelets [9]; isaridin E 50 μM): 0.86 ± 0.03% | LDH Release (%) (washed mouse platelets [9]; isaridin E 100 μM): 0.88 ± 0.04% | LDH Release (%) (washed mouse platelets [9]; isaridin E 200 μM): 0.84 ± 0.02% | LDH Release (%) (washed mouse platelets [9]; isaridin E 400 μM): 0.85 ± 0.02% | ADP-induced phosphorylation of PI3K (PI3K; 30 min, ADP 5 μM 5 min): significantly suppressed | total protein expression of PI3K (PI3K): without altering | effect on general coagulation (APTT, TT, PT, FIB) [10, 12]: no obvious effects | ATPP [10, 13]: 32.4 ± 1.0 s | FIB (fibrinogen) [10, 13]: 3.1 ± 0.1 g/L | PT (prothrombin time) [10, 13]: 12.1 ± 0.4 s | TT (thrombin time) [10, 13]: 14.0 ± 0.8 s | tail bleeding time versus vehicle control (Tail-bleeding assay; 12.5, 25, 50 or 100 mg/kg): no obvious effects | bleeding time compared with clopidogrel (10 mg/kg) (Tail-bleeding assay; isaridin E 12.5-100 mg/kg): significantly reduced

COC(=O)[C@H](c1ccccc1Cl)N1CCc2sccc2C1 [clopidogrel, reference compound]
tail bleeding time versus vehicle control (Tail-bleeding assay; 10 mg/kg): significantly increased
